The record followed here is ChEMBL document CHEMBL5154804, “Species-Selective Targeting of Fungal Hsp90: Design, Synthesis, and Evaluation of Novel 4,5-Diarylisoxazole Derivatives for the Combination Treatment of Azole-Resistant Candidiasis” (J Med Chem, 2022).

The nature of data set [1]: Binding affinity to recombinant Candida albicans Hsp90 NBD expressed in Escherichia coli by SPR assay.
The subject of data set [2] is Candida albicans. The data set is described as follows: Synergistic antifungal activity against fluconazole-resistant Candida albicans 311 assessed as inhibition of fungal growth in presence of fluconazole by checker board microdilution assay. It is filed as functional. (In general: Broth dilution looks for growth in wells or tubes with falling amounts of substance.)

Data set [3] relates to Candida albicans. As to the kind of experiment: Synergistic antifungal activity against fluconazole-resistant Candida albicans 632 assessed as inhibition of fungal growth in presence of fluconazole by checker board microdilution assay. It is filed as functional.
The test system of data set [4] is Candida albicans. The data set is described as follows: Synergistic antifungal activity against fluconazole-resistant Candida albicans 904 assessed as inhibition of fungal growth in presence of fluconazole by checker board microdilution assay. It is filed as functional.
Data set [5] concerns Candida albicans. The data set is described as follows: Synergistic antifungal activity against fluconazole-resistant Candida albicans 103 assessed as inhibition of fungal growth in presence of fluconazole by checker board microdilution assay. It is filed as functional.
For data set [6], the system named is Candida albicans. As to the kind of experiment: Synergistic antifungal activity against fluconazole-resistant Candida albicans 901 assessed as inhibition of fungal growth in presence of fluconazole by checker board microdilution assay. It is filed as functional.
Data set [7] addresses Heat shock protein HSP90 (Homo sapiens, UniProt P07900+P08238). The data set is described as follows: Binding affinity to human Hsp90 expressed in Escherichia coli by SPR assay. A general note: Surface plasmon resonance follows binding to a sensor surface in real time, without labels.
Data set [8] relates to Candida albicans. As to the kind of experiment: Synergistic antifungal activity against fluconazole-resistant Candida albicans 100 assessed as inhibition of fungal growth in presence of fluconazole by checker board microdilution assay. It is filed as functional.
Data set [9] is described as follows: Metabolic stability in human liver microsomes assessed as half life in presence of NADPH cofactor under shaking condition for 10 mins measured after 5 to 60 mins by LC-MS/MS analysis. It is filed as ADME, Microsome. To be noted: time 15-70 min. Background: Liver microsomes are a subcellular fraction often used to study metabolism.
Data set [10] can be described thus: Metabolic stability in human liver microsomes assessed as microsomal intrinsic clearance in presence of NADPH cofactor under shaking condition for 10 mins measured after 5 to 60 mins by LC-MS/MS analysis. It is filed as ADME, Microsome. To be noted: time 15-70 min.
A short description of data set [11]: Metabolic stability in human liver microsomes assessed as intrinsic clearance in presence of NADPH cofactor under shaking condition for 10 mins measured after 5 to 60 mins by LC-MS/MS analysis. It is filed as ADME, Microsome. To be noted: time 15-70 min.
The nature of data set [12]: Metabolic stability in human liver microsomes assessed as compound remaining in presence of NADPH cofactor under shaking condition for 10 mins measured after 60 mins by LC-MS/MS analysis. As to conditions: time 70 min, read-out: Stability. It is filed as ADME, Microsome.

As usually defined, the Kd is the concentration at which binding is half-saturated. As usually defined, the MIC80 is an inhibitory concentration at the 80% level, which refers to growth in some studies and to a panel of isolates in others. Turning to `CCNC(=O)c1noc(-c2cc(-c3ccccc3C)c(O)cc2O)c1-c1ccc(CN2CCOCC2)cc1`, the Kd in [1] and in data set [7] was over 25 µM throughout. In addition, the MIC80 in data set [2], in data set [3], in [4], in data set [5], in data set [6] and in data set [8] was over 64 µg/mL each time.

By half-life is commonly meant the time in which the quantity being followed falls by half. As for `CCNC(=O)c1noc(-c2cc(-c3cccc(Cl)c3)c(O)cc2O)c1-c1ccc(CN2CCOCC2)cc1`, the half-life in [9] worked out at 19.3 min. The MIC80 in [2] stood at 1 µg/mL; in data set [3], 0.5 µg/mL; in data set [4], 0.25 µg/mL; in data set [5], 0.5 µg/mL; in [6] it was 1 µg/mL; in [8], 1 µg/mL. In addition, the results for the CLint in [10] and in data set [11] were 72 µL/min/mg and 64.8 mL/min/kg, respectively. For the same molecule, the remaining at 1.167 h in data set [12] came to 12.1%.

Take `CCNC(=O)c1noc(-c2cc(-c3cccc(CC)c3)c(O)cc2O)c1-c1ccc(CN2CCOCC2)cc1`: the half-life in data set [9] is 17.2 min. In addition, the MIC80 in data set [2] was found to be 0.5 µg/mL; in [3], 0.5 µg/mL; in data set [4], 0.5 µg/mL; in data set [5], 1 µg/mL; in data set [6], 0.25 µg/mL; in data set [8], 0.25 µg/mL. For the same molecule, the CLint in data set [10] came out at 80.7 µL/min/mg; in [11], 72.7 mL/min/kg. For the same molecule, the remaining at 1.167 h in [12] was 9.2%.

Take `CCNC(=O)c1noc(-c2cc(-c3cccc(C(C)C)c3)c(O)cc2O)c1-c1ccc(CN2CCOCC2)cc1`: the results for the Kd in data set [1] and in [7] were 0.476 µM and over 25 µM, respectively. Besides, the half-life in data set [9] was 15.1 min. Also, the MIC80 in data set [2] turned out to be 0.5 µg/mL; in data set [3], 0.5 µg/mL; in data set [4] it was 0.25 µg/mL; in data set [5], 0.25 µg/mL; in data set [6], 0.25 µg/mL; in data set [8], 0.25 µg/mL. For the same molecule, the CLint in data set [10] turned out to be 91.9 µL/min/mg; in data set [11], 82.7 mL/min/kg. Besides, the remaining at 1.167 h in data set [12] is 6.1%.

For `CCNC(=O)c1noc(-c2cc(-c3ccc(F)cc3)c(O)cc2O)c1-c1ccc(CN2CCOCC2)cc1`, the MIC80 is 16 µg/mL in [2]; 4 µg/mL in data set [3]; 1 µg/mL in data set [4]; 16 µg/mL in data set [5]; 2 µg/mL in data set [6]; 16 µg/mL in data set [8].

Take `Cc1ccc(-c2cc(-c3onc(C(=O)NC4CCC4)c3-c3ccc(CN4CCCCC4)cc3)c(O)cc2O)cc1`: the MIC80 was 2 µg/mL in [2]; 1 µg/mL in data set [3]; 2 µg/mL in data set [4]; 4 µg/mL in [5]; 4 µg/mL in [6]; 2 µg/mL in [8].

For the molecule `C[C@@H]1C[C@H]2O[C@@H]2/C=C\C=C\C(=O)Cc2c(Cl)c(O)cc(O)c2C(=O)O1` [RADICICOL], in data set [1], the equilibrium dissociation constant (Kd) was found to be 0.002 µM. The MIC80 is 1 µg/mL in [2]; 1 µg/mL in data set [3]; 0.5 µg/mL in data set [4]; 1 µg/mL in data set [5]; 1 µg/mL in [6]; 0.5 µg/mL in data set [8].

On to `CCNC(=O)c1noc(-c2cc(-c3ccc(C(C)(C)C)cc3)c(O)cc2O)c1-c1ccc(CN2CCOCC2)cc1`, for which the MIC80 in data set [2], in data set [3], in [4], in data set [5], in data set [6] and in data set [8] was over 64 µg/mL each time.

As to `CCNC(=O)c1noc(-c2cc(-c3ccc(C)cc3)c(O)cc2O)c1-c1ccc(CN2CCN(C)CC2)cc1`, the MIC80 is over 64 µg/mL in data set [2]; over 64 µg/mL in [3]; over 64 µg/mL in [4]; over 64 µg/mL in data set [5]; 64 µg/mL in [6]; over 64 µg/mL in [8].

Turning to `CCNC(=O)c1noc(-c2cc(-c3ccc(C)cc3)c(O)cc2O)c1-c1ccc(CN2CCCC2)cc1`, the MIC80 in data set [2] is 4 µg/mL; in data set [3], 4 µg/mL; in [4], 2 µg/mL; in data set [5], 4 µg/mL; in [6], 1 µg/mL; in data set [8], 2 µg/mL.

`Cc1ccc(-c2cc(-c3onc(C(=O)N4CCCCC4)c3-c3ccc(CN4CCOCC4)cc3)c(O)cc2O)cc1`: the MIC80 in data set [2], in data set [3], in data set [4], in data set [5], in [6] and in [8] was over 64 µg/mL throughout.

Turning to `Cc1ccc(-c2cc(-c3onc(C(=O)NC4CC4)c3-c3ccc(CN4CCOCC4)cc3)c(O)cc2O)cc1`, the MIC80 was over 64 µg/mL in data set [2]; 32 µg/mL in [3]; 4 µg/mL in data set [4]; 16 µg/mL in data set [5]; 8 µg/mL in data set [6]; 4 µg/mL in [8].

Take `CCNC(=O)c1noc(-c2cc(-c3cccc(C(C)(C)C)c3)c(O)cc2O)c1-c1ccc(CN2CCOCC2)cc1`: the MIC80 in [2], in data set [3], in data set [4], in data set [5], in data set [6] and in [8] was over 64 µg/mL throughout.

In the case of `CCNC(=O)c1noc(-c2cc(-c3ccc(C)cc3)c(O)cc2O)c1-c1ccc(CN2CCS(=O)(=O)CC2)cc1`, the MIC80 in [2] was 16 µg/mL; in data set [3], over 64 µg/mL; in data set [4] it was 32 µg/mL; in data set [5], over 64 µg/mL; in data set [6], 64 µg/mL; in [8], over 64 µg/mL.

Turning to `Cc1ccc(-c2cc(-c3onc(C(=O)N(C)C)c3-c3ccc(CN4CCOCC4)cc3)c(O)cc2O)cc1`, the MIC80 in [2] amounted to 32 µg/mL; in data set [3], 8 µg/mL; in data set [4], 8 µg/mL; in data set [5] it was 16 µg/mL; in data set [6], 4 µg/mL; in data set [8], 32 µg/mL.

On to `Cc1ccc(-c2cc(-c3onc(C(=O)NC4COC4)c3-c3ccc(CN4CCCCC4)cc3)c(O)cc2O)cc1`, for which the MIC80 was over 64 µg/mL in data set [2]; over 64 µg/mL in data set [3]; over 64 µg/mL in [4]; over 64 µg/mL in [5]; 32 µg/mL in data set [6]; over 64 µg/mL in [8].

As for `CCNC(=O)c1noc(-c2cc(-c3ccc(C)cc3)c(O)cc2O)c1-c1ccc(CN2CCNC(=O)C2)cc1`, the MIC80 in data set [2], in data set [3], in [4], in data set [5], in [6] and in data set [8] was over 64 µg/mL each time.

On to `CCNC(=O)c1noc(-c2cc(-c3ccccc3CC)c(O)cc2O)c1-c1ccc(CN2CCOCC2)cc1`, for which the MIC80 in data set [2], in data set [3], in data set [4], in data set [5], in data set [6] and in data set [8] was over 64 µg/mL in each case.

Turning to `CCNC(=O)c1noc(-c2cc(-c3ccccc3C(C)C)c(O)cc2O)c1-c1ccc(CN2CCOCC2)cc1`, the MIC80 in data set [2], in data set [3], in data set [4], in data set [5], in data set [6] and in [8] was over 64 µg/mL each time.

For `CCNC(=O)c1noc(-c2cc(-c3cccc(C)c3)c(O)cc2O)c1-c1ccc(CN2CCOCC2)cc1`, the MIC80 in data set [2] was determined as 0.5 µg/mL; in data set [3] it was 0.25 µg/mL; in data set [4] it was 0.25 µg/mL; in data set [5], 1 µg/mL; in data set [6], 0.5 µg/mL; in data set [8], 1 µg/mL.

Turning to `CCNC(=O)c1noc(-c2cc(-c3cccc(OC(F)(F)F)c3)c(O)cc2O)c1-c1ccc(CN2CCOCC2)cc1`, the MIC80 in [2], in data set [3], in data set [4], in data set [5], in [6] and in data set [8] was over 64 µg/mL throughout.

Take `CCNC(=O)c1noc(-c2cc(-c3ccc(C)cc3)c(O)cc2O)c1-c1ccc(CNC2CCN(C)CC2)cc1`: the MIC80 in [2] stood at 64 µg/mL; in [3], 8 µg/mL; in data set [4] it was 64 µg/mL; in data set [5], 16 µg/mL; in data set [6], 16 µg/mL; in data set [8], 64 µg/mL.

For the molecule `CCNC(=O)c1noc(-c2cc(-c3ccccc3)c(O)cc2O)c1-c1ccc(CN2CCOCC2)cc1`, the equilibrium dissociation constant (Kd) in [1] was 7.91 µM; in [7], over 25 µM. Moreover, the MIC80 was found to be 4 µg/mL in data set [2]; 4 µg/mL in [3]; 2 µg/mL in data set [4]; 4 µg/mL in data set [5]; 1 µg/mL in data set [6]; 2 µg/mL in [8].
